The values that follow come from PMC3411833, “The Two PPX-GppA Homologues from Mycobacterium tuberculosis Have Distinct Biochemical Activities” (PLoS ONE, 2012).

The target in assay [1] is T1, MTB-PPX1 (Rv0496) (Mycobacterium tuberculosis, UniProt P9WHV5).
The target in the next assay is T2, Rv1026 (Mycobacterium tuberculosis, UniProt P96374).
T2 construct: gene ppx2

Assay [2] deals with T1, MTB-PPX1 (Rv0496). The source holds these as a separate data set.

T1 sequence (P9WHV5 whole entry): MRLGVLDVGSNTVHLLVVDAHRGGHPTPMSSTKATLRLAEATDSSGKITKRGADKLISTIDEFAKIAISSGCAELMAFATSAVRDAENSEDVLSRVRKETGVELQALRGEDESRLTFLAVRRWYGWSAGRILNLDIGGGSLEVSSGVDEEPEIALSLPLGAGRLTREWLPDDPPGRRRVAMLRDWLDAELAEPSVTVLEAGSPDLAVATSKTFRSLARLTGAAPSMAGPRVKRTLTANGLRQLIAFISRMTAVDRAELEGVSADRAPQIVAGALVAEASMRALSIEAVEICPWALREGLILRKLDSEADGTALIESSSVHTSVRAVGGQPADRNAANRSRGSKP
T2 sequence (P96374 whole entry): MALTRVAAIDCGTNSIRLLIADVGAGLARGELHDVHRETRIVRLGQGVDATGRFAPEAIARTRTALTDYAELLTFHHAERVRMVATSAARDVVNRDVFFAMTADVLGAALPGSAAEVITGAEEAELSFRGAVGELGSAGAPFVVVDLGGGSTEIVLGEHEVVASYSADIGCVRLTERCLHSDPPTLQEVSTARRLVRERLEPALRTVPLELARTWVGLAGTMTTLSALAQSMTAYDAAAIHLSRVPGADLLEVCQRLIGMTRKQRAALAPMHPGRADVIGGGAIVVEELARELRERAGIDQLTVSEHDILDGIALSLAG

`Nc1nc2c(ncn2[C@@H]2O[C@H](COP(=O)(O)OP(=O)(O)OP(=O)(O)O)[C@@H](OP(=O)(O)OP(=O)(O)O)[C@H]2O)c(=O)[nH]1` [pppGpp, guanosine 5′-triphosphate, 3′-diphosphate]: the “Exopolyphosphatase activities / +1 mM pppGpp / (% decrease) / ATPase activities” value at MTB-PPX1 (Rv0496) [1] is reported as 37.9±6.7%; at Rv1026, 32.3±9.4%. In the case of `Nc1nc2c(ncn2[C@@H]2O[C@H](COP(=O)(O)OP(=O)(O)O)[C@@H](OP(=O)(O)OP(=O)(O)O)[C@H]2O)c(=O)[nH]1` [ppGpp, guanosine 3′,5′-bisdiphosphate], the “Exopolyphosphatase activities / +1 mM ppGpp / (% decrease) / ATPase activities” value on MTB-PPX1 (Rv0496) [2] amounted to 5.9±0.7%.
